# Laboratory results taken from BindingDB's records for doi:10.1021/jm010468s (Pfizer, 2002).
# Non-standard residues stand in square brackets, D forms with d. Residues, ends and D or L forms follow the SMILES beside them. Trp(6-Cl) = N[C@@H](Cc1c[nH]c2cc(Cl)ccc12)C(=O)O; Pmp = N[C@@H](Cc1ccc(CP(=O)(O)O)cc1)C(=O)O; Ac3c = NC1(C(=O)O)CC1; Aib = CC(C)(N)C(=O)O
# Test: Inhibition of p53 binding to […] (hdm2-GST)
compound,measurement,value
"CSCC[C@H](NC(=O)[C@H](Cc1ccccc1)NC(C)=O)C(=O)NC(C)(C)C(=O)N[C@@H](Cc1ccc(CP(=O)(O)O)cc1)C(=O)N[C@@H](Cc1c[nH]c2cc(Cl)ccc12)C(=O)N[C@@H](CCC(=O)O)C(=O)NC1(C(=O)N[C@@H](CC(C)C)C(N)=O)CC1 [Ac-Phe-Met-Aib-Pmp-6-Cl-Trp-Glu-Ac3c-Leu-NH2, GST-hdm2 binding peptide] (Ac-FM[Aib][Pmp][Trp(6-Cl)]E[Ac3c]L-NH2)",IC50,5 nM
